Target: T1, Human Histamine H3 Receptor (Homo sapiens, UniProt Q9Y5N1)
T1 construct: expressed in transfected cells; host or cells: HEK293T cells, stably transfected; membrane preparation
Experiment: Methyl histamine binding in human histamine H3 receptor cell line
Settings: membranes of stably transfected HEK293T cells; radioligand 1 nM; Ki from IC50 by Cheng-Prusoff
Experimental: Evaluation of Methyl Histamine Binding in Human Histamine H3 Receptor Cell Line
The affinity of test compounds for the histamine 3 (H3) receptor is evaluated in the following manner. Stably transfected HEK293T cells are grown in DMEM containing 10% heat inactivated FBS and G-418 (500 ug/ml). Cells are scraped from the plate, transferred to centrifuge tubes, washed one time in PBS by centrifugation in a Sorvall RT7 Plus centrifuge (2000 rpm 10 minutes, 4° C.). The resulting pellets are stored at −80° C. until ready for use. Cells are re-suspended in buffer (50 mM Tris pH=7.5) and placed in a Dounce homogenizer, douncing ten times to homogenize cells. The homogenate is spun down by centrifugation (Sorvall RT7 Plus, 1800 rpm 10 minutes, 4° C.). The supernatant is placed in a Corex tube and spun down by centrifugation (Sorvall RC 5c Plus, 17,000 rpm 20 minutes, 4° C.). The pellet is resuspended in buffer (50 mM Tris, pH 7.5). Protein concentration (ug/ul) is determined using the Micro-BCA Protein Determination. The binding assay is set up in a 96 well microtiter plate in a total volume of 250 uL. Non-specific binding is determined in the presence of 10 uM clobenpropit. The final radioligand concentration is 1 nM. The test compound is serially diluted using the Beckman Biomek2000 to a final approximate range of 100 uM to 100 pM. Membranes are suspended in buffer, homogenized in 2 bursts of ten seconds using a Vitris mechanical homogenizer set at power setting 5. Ten μg of membranes are added to each well. Following a one hour incubation at 30° C., the reaction is terminated by the addition of ice cold buffer and rapid filtration with a Packard Filtermate Harvester through a GF/B filter pre-soaked with 1% PEI for one hour. The plate is dried for one hour at 37° C. and 60 μL Microscint Scintillant is added to each well. The CPM per well is measured on a Packard Top Count NXT. Ki values are determined in nM. The Ki is calculated from the IC50 (i.e. the concentration of competing ligand which displaces 50% of the specific binding of the radioligand). CPM values are expressed as % specific binding and plotted vs compound concentration. A curve is fitted using a four-parameter logistic fit and the IC50 value is determined. The Ki is calculated from this using the Cheng-Prusoff equation: […]=IC50/1+(L/Kd) where L=concentration of free radioligand used in the assay, and Kd is the dissociation constant of the radioligand for the receptor. L is determined for each experiment by counting an aliquot of the diluted radioligand (corresponding to that added to each well) and the Kd has previously been determined under identical conditions for this cell line/radioligand.

T1 sequence (Q9Y5N1 whole entry): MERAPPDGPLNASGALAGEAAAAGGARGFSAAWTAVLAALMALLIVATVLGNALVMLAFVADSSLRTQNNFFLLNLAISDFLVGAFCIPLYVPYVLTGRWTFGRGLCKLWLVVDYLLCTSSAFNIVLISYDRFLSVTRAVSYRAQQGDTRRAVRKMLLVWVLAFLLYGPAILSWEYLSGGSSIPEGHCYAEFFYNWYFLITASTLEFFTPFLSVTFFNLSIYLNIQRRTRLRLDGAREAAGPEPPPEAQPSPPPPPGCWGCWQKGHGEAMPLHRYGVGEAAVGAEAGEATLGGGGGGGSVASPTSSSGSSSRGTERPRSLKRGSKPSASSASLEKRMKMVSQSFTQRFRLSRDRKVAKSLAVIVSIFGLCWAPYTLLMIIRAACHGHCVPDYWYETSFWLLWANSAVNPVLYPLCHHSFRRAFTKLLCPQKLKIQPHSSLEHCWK

| Ki [nM] | SMILES |
| --- | --- |
| ≤ 10 | CCNC(=O)c1ccc(Oc2ccc3c(c2)CCN([C@@H]2CCN(C4CCC4)C2)C3=O)cc1 [Example 34, 4-({2-[(3R)-1-cyclobutylpyrrolidin-3-yl]-1-oxo-1,2,3,4-tetrahydroisoquinolin-6-yl}oxy)-N-ethylbenzamide] |
| 10.1 to 25 | O=C(c1ccc(Oc2ccc3c(c2)CCN([C@@H]2CCN(C4CCC4)C2)C3=O)cc1)N1CCCC1 [Example 35, 2-[(3R)-1-cyclobutylpyrrolidin-3-yl]-6-[4-(pyrrolidin-1-ylcarbonyl)phenoxy]-3,4-dihydroisoquinolin-1(2H)-one] |
| ≤ 10 | CNC(=O)c1ccc(Oc2ccc3c(c2)CCN([C@@H]2CCN(C4CCCC4)C2)C3=O)cc1 [Example 37, 4-({2-[(3R)-1-cyclopentylpyrrolidin-3-yl]-1-oxo-1,2,3,4-tetrahydroisoquinolin-6-yl}oxy)-N-methylbenzamide] |
| 10.1 to 25 | CCNC(=O)c1ccc(Oc2ccc3c(c2)CCN([C@@H]2CCN(C4CCCC4)C2)C3=O)cc1 [Example 38, 4-({2-[(3R)-1-cyclopentylpyrrolidin-3-yl]-1-oxo-1,2,3,4-tetrahydroisoquinolin-6-yl}oxy)-N-ethylbenzamide] |
| ≤ 10 | O=C(c1ccc(Oc2ccc3c(c2)CCN([C@@H]2CCN(C4CCCC4)C2)C3=O)cc1)N1CCCC1 [Example 39, 2-[(3R)-1-cyclopentylpyrrolidin-3-yl]-6-[4-(pyrrolidin-1-ylcarbonyl)phenoxy]-3,4-dihydroisoquinolin-1(2H)-one] |
| ≤ 10 | CNC(=O)c1ccc(-c2ccc3c(c2)CCN([C@@H]2CCN(C4CCCC4)C2)C3=O)cc1 [Example 41, 4-{2-[(3R)-1-cyclopentylpyrrolidin-3-yl]-1-oxo-1,2,3,4-tetrahydroisoquinolin-6-yl}-N-methylbenzamide] |
| ≤ 10 | CCNC(=O)c1ccc(-c2ccc3c(c2)CCN([C@@H]2CCN(C4CCCC4)C2)C3=O)cc1 [Example 42, 4-{2-[(3R)-1-cyclopentylpyrrolidin-3-yl]-1-oxo-1,2,3,4-tetrahydroisoquinolin-6-yl}-N-ethylbenzamide] |
| ≤ 10 | O=C(c1ccc(-c2ccc3c(c2)CCN([C@@H]2CCN(C4CCCC4)C2)C3=O)cc1)N1CCCC1 [Example 43, 2-[(3R)-1-cyclopentylpyrrolidin-3-yl]-6-[4-(pyrrolidin-1-ylcarbonyl)phenyl]-3,4-dihydroisoquinolin-1(2H)-one] |
| ≤ 10 | CNC(=O)c1ccc(-c2ccc3c(c2)CCN([C@@H]2CCN(C4CCC4)C2)C3=O)cc1 [Example 44, 4-{2-[(3R)-1-cyclobutylpyrrolidin-3-yl]-1-oxo-1,2,3,4-tetrahydroisoquinolin-6-yl}-N-methylbenzamide] |
| ≤ 10 | CCNC(=O)c1ccc(-c2ccc3c(c2)CCN([C@@H]2CCN(C4CCC4)C2)C3=O)cc1 [Example 45, 4-{2-[(3R)-1-cyclobutylpyrrolidin-3-yl]-1-oxo-1,2,3,4-tetrahydroisoquinolin-6-yl}-N-ethylbenzamide] |
| ≤ 10 | CN(C)C(=O)c1ccc(-c2ccc3c(c2)CCN([C@@H]2CCN(C4CCC4)C2)C3=O)cc1 [Example 46, 4-{2-[(3R)-1-cyclobutylpyrrolidin-3-yl]-1-oxo-1,2,3,4-tetrahydroisoquinolin-6-yl}-N,N-dimethylbenzamide] |
| ≤ 10 | O=C(c1ccc(-c2ccc3c(c2)CCN([C@@H]2CCN(C4CCC4)C2)C3=O)cc1)N1CCCC1 [Example 47, 2-[(3R)-1-cyclobutylpyrrolidin-3-yl]-6-[4-(pyrrolidin-1-ylcarbonyl)phenyl]-3,4-dihydroisoquinolin-1(2H)-one] |
| ≤ 10 | O=C(c1ccc(-c2ccc3c(c2)CCN([C@@H]2CCN(C4CCC4)C2)C3=O)cc1F)N1CCCC1 [Example 48, 2-[(3R)-1-cyclobutylpyrrolidin-3-yl]-6-[3-fluoro-4-(pyrrolidin-1-ylcarbonyl)phenyl]-3,4-dihydroisoquinolin-1(2H)-one] |
| ≤ 10 | O=C(c1ccc(-c2ccc3c(c2)CCN([C@@H]2CCN(C4CCC4)C2)C3=O)cc1Cl)N1CCCC1 [Example 49, 6-[3-chloro-4-(pyrrolidin-1-ylcarbonyl)phenyl]-2-[(3R)-1-cyclobutylpyrrolidin-3-yl]-3,4-dihydroisoquinolin-1(2H)-one] |
| 50.1 to 100 | CN1CC[C@@H](N2CCc3cc(-c4ccc(C(=O)N5CCCC5)cc4)ccc3C2=O)C1 [Example 55, 2-[(3R)-1-methylpyrrolidin-3-yl]-6-[4-(pyrrolidin-1-ylcarbonyl)phenyl]-3,4-dihydroisoquinolin-1(2H)-one] |
| ≤ 10 | CC(C)N1CC[C@@H](N2CCc3cc(-c4ccc(C(=O)N5CCCC5)cc4)ccc3C2=O)C1 [Example 56, 2-[(3R)-1-(1-methylethyl)pyrrolidin-3-yl]-6-[4-(pyrrolidin-1-ylcarbonyl)phenyl]-3,4-dihydroisoquinolin-1(2H)-one] |
| ≤ 10 | O=C(c1ccc(-c2ccc3c(c2)CCN([C@@H]2CCN(C4CCCCC4)C2)C3=O)cc1)N1CCCC1 [Example 57, 2-[(3R)-1-cyclohexylpyrrolidin-3-yl]-6-[4-(pyrrolidin-1-ylcarbonyl)phenyl]-3,4-dihydroisoquinolin-1(2H)-one] |
| ≤ 10 | O=C(c1ccc(-c2ccc3c(c2)CCN([C@@H]2CCN(CC4CC4)C2)C3=O)cc1)N1CCCC1 [Example 58, 2-[(3R)-1-(cyclopropylmethyl)pyrrolidin-3-yl]-6-[4-(pyrrolidin-1-ylcarbonyl)phenyl]-3,4-dihydroisoquinolin-1(2H)-one] |
| 10.1 to 25 | O=C(c1ccc(-c2ccc3c(c2)CCN([C@@H]2CCN(CC4CCCC4)C2)C3=O)cc1)N1CCCC1 [Example 59, 2-[(3R)-1-(cyclopentylmethyl)pyrrolidin-3-yl]-6-[4-(pyrrolidin-1-ylcarbonyl)phenyl]-3,4-dihydroisoquinolin-1(2H)-one] |
| ≤ 10 | O=C(c1ccc(-c2ccc3c(c2)CCN([C@@H]2CCN(Cc4ccoc4)C2)C3=O)cc1)N1CCCC1 [Example 60, 2-[(3R)-1-(furan-3-ylmethyl)pyrrolidin-3-yl]-6-[4-(pyrrolidin-1-ylcarbonyl)phenyl]-3,4-dihydroisoquinolin-1(2H)-one] |
| > 100 | O=C(c1ccc(-c2ccc3c(c2)CCN([C@@H]2CCN(Cc4ccco4)C2)C3=O)cc1)N1CCCC1 [Example 61, 2-[(3R)-1-(furan-2-ylmethyl)pyrrolidin-3-yl]-6-[4-(pyrrolidin-1-ylcarbonyl)phenyl]-3,4-dihydroisoquinolin-1(2H)-one] |
| 25.1 to 50 | O=C(c1ccc(-c2ccc3c(c2)CCN([C@@H]2CCN(Cc4cccs4)C2)C3=O)cc1)N1CCCC1 [Example 62, 6-[4-(pyrrolidin-1-ylcarbonyl)phenyl]-2-[(3R)-1-(thiophen-2-ylmethyl)pyrrolidin-3-yl]-3,4-dihydroisoquinolin-1(2H)-one] |
| ≤ 10 | O=C(c1ccc(-c2ccc3c(c2)CCN(C2CCN(C4CCC4)CC2)C3=O)cc1)N1CCCC1 [Example 65, 2-(1-cyclobutylpiperidin-4-yl)-6-[4-(pyrrolidin-1-ylcarbonyl)phenyl]-3,4-dihydroisoquinolin-1(2H)-one] |
| ≤ 10 | O=C(c1ccc(-c2ccc3c(c2)CCN(C2CCN(C4CCCC4)CC2)C3=O)cc1)N1CCCC1 [Example 66, 2-(1-cyclopentylpiperidin-4-yl)-6-[4-(pyrrolidin-1-ylcarbonyl)phenyl]-3,4-dihydroisoquinolin-1(2H)-one] |
| ≤ 10 | CC(C)N1CCC(N2CCc3cc(-c4ccc(C(=O)N5CCCC5)cc4)ccc3C2=O)CC1 [Example 67, 2-(1-isopropylpiperidin-4-yl)-6-[4-(pyrrolidin-1-ylcarbonyl)phenyl]-3,4-dihydroisoquinolin-1(2H)-one] |
| 10.1 to 25 | O=C(c1ccc(-c2ccc3c(c2)CCN([C@@H]2CCCN(C4CCC4)C2)C3=O)cc1)N1CCCC1 [Example 70, 2-[(3R)-1-cyclobutylpiperidin-3-yl]-6-[4-(pyrrolidin-1-ylcarbonyl)phenyl]-3,4-dihydroisoquinolin-1(2H)-one] |
| 10.1 to 25 | O=C(c1ccc(-c2ccc3c(c2)CCN([C@@H]2CCCN(C4CCCC4)C2)C3=O)cc1)N1CCCC1 [Example 71, 2-[(3R)-1-cyclopentylpiperidin-3-yl]-6-[4-(pyrrolidin-1-ylcarbonyl)phenyl]-3,4-dihydroisoquinolin-1(2H)-one] |

— patent publication US20090069370A1, “AZACYCLYLISOQUINOLINONE AND ISOINDOLINONE DERIVATIVES AS HISTAMINE-3 ANTAGONISTS” (Wyeth, priority 2007, published 2009)
